# Reference: US20240180805A1, “COMPOSITION FOR INHIBITING WRINKLE” (YUKI GOSEI KOGYO CO., LTD., priority 2022, published 2024)
# Tested on: hyaluronic acid synthase (HAS2)
# Conditions: β-alanine 10 mM added twice, 24 h apart; total 48 h; relative to β-actin (ΔΔCt); FIG. 1
smiles,measurement,value
NCCC(=O)O [β-alanine],mRNA of hyaluronic acid synthase in dermal fibroblasts,increased
